Each structure is given as a SMILES string.

From paper PMC11056982, “Paraptotic Cell Death as an Unprecedented Mode of Action Observed for New Bipyridine-Silver(I) Compounds Bearing Phosphane Coligands” (Journal of Medicinal Chemistry, 2024) come the findings set out here.

The nature of data set [1]: Stability in PBS by LC-ESI(+)-HRMS/MS. It counts as physicochemical. The settings on record: 80 μM in PBS, monitored 48 h. On the procedure: For the stability evaluation in PBS, 10 mM solutions of complexes 1, 4, and 7 were first prepared in DMSO. Two microliters of this solution were then added to PBS (250 μL) for a total concentration of 80 μM. Following centrifugation for 10 min at 3000 rpm, the resulting solutions were monitored by LC-ESI(+)-MS and LC-ESI(+)-HRMS for a period of 48 h.

The subject of data set [2] is MES-OV cells. The experiment in a line: TEM analysis of subcellular morphology. It counts as cell-based, human. The settings on record: 24 h treatment. How it is done:
MES-OV Cells were seeded (8 × 10^5 cells/mL) in […] in six-well plates. After 24 h, cells were treated with the selected compounds at the indicated concentration for another 24 h. Afterward, cells were collected, pelleted, and fixed in a solution of 2.5% glutaraldehyde and 2% paraformaldehyde in 0.1 M cacodylate buffer (pH 7.4) for 2 h at room temperature. Samples were subsequently washed 3 × 10 min in cacodylate buffer and postfixed in 1% osmium tetroxide for 1 h. After 3 × 10 min washing in cacodylate buffer, samples were dehydrated in an ethanol series (30–100%, 10 min each) and pure acetone (2 × 10 min) and gradually embedded in Epon 812 resin (Serva). Sections (40–50 nm) were prepared with a Leica UC7 ultramicrotome, mounted on copper mesh grids, and contrasted with 1% uranyl acetate (7 min) and 3% lead citrate (3 min). Imaging was performed with a Tecnai G2 20 transmission electron microscope at 80 kV equipped with an FEI Eagle 4K CCD camera (Center for Anatomy and Cell Biology). Image processing was performed in Fiji[57] using the CLAHE filter (enhance local contrast).

Data set [3] concerns MES-OV cells. The experiment in a line: ROS detection by DCF-DA flow cytometry in MES-OV. It counts as cell-based, human. The settings on record: 24 h. How it is done:
Cells were seeded 5 × 10^5 cells/mL in six-well plates. After 24 h treatment with the indicated concentration, cells were incubated with 10 μM 2′,7′-dichlorofluorescein diacetate (DCFH-DA, Sigma-Aldrich) in Hank’s balanced salt solution for 1 h at 37 °C. Subsequently, flow cytometry (with BD LSR Fortessa instrument, BD Biosciences, Franklin Lakes, NJ, USA) was performed to measure the median fluorescence signal of 20,000 single cells per sample. FlowJo (BD Biosciences, San Jose, CA, USA) and GraphPad Prism software (GraphPad Software Inc., San Diego, CA, USA) were to analyze the data.
A general note: Flow cytometry measures light scatter and fluorescence of single cells or particles in a stream.

Data set [4] has as its system SK-OV-3. Put plainly: Cell death by annexin V/propidium iodide stain (flow cytometry). It counts as cell-based, human. The settings on record: SK-OV-3, 10 μM, 24 h. On the procedure:
(§1) Cells were seeded in a density of (2–4) × 10^5 cells/well in six-well plates and in 1 mL culture medium containing 10% FBS. After 24 h recovery, cells were treated with the indicated compounds and concentrations. Next, the supernatant was collected followed by trypsinization of the cells and centrifugation at 300g for 5 min. In the following protocols, cells were stained with annexin V (AV) and propidium iodide (PI) for cell death analysis, with only PI for cell cycle analysis, or with 10 μg mL^–1 JC-1 for evaluation of the mitochondrial membrane potential as previously described.[54],[55]

For data set [5], the system named is HCT116 WT/OxR. Put plainly: MTT viability assay in oxaliplatin-resistant HCT116 WT/OxR cells. It counts as cell-based, human. The settings on record: 72 h; resistant subline vs parental line. On the procedure:
(§2) Cells were seeded (2 × 10^4 cells/well for HCT116, HCT116/OxR, 3 × 10^4 cells/well for HCT116 p53KO, 4 × 10^4 cells/well for MES-OV, SK-OV-3, and their respective CBP resistant counterparts) in 100 μL/well in 96-well plates and allowed to attach for 24 h at 37 °C and 5% CO2. Compounds were first dissolved in DMSO to a 10 mM stock solution and then further diluted in a growth medium (DMSO concentration <1%). After 24 h, cells were treated with 100 μL of different drugs dilutions in triplicates with the final concentrations of 0, 0.01, 0.05, 0.075, 0.1, 0.5, 0.75, 1, 2.5, 5, 7.5, and 10 μM depending on the compound and the cell line.
In general terms: Formazan colour is commonly taken as a measure of viable cells.

For data set [6], the system named is MES-OV cells. The experiment in a line: Phase-contrast microscopy of cytoplasmic vacuoles. It counts as cell-based, human. The settings on record: 6 and 24 h treatment. How it is done: Cells were seeded 5 × 10^5/well in six-well plates after 24 h recovery treatment with compounds 1, 4, and 7 was performed with the indicated concentrations. After 6 and 24 h, phase-contrast images of the cells were taken with a Zeiss Primovert microscope (20× magnification). To determinate the percentage of vacuolated cells, images (three images each condition) were analyzed by ImageJ, and vacuolated cells were counted.

Data set [7] deals with SK-OV-3 and MES-OV cells. Put plainly: Cell cycle distribution (PI stain, flow cytometry). It is filed as cell-based, human. The settings on record: 10 μM, 24 h. On the procedure:
as §1

Data set [8] has as its target T1, recombinant rat TrxR (Rattus norvegicus, UniProt O89049).
T1 construct: purchased Cayman Chemical
T1 sequence (O89049 1-499): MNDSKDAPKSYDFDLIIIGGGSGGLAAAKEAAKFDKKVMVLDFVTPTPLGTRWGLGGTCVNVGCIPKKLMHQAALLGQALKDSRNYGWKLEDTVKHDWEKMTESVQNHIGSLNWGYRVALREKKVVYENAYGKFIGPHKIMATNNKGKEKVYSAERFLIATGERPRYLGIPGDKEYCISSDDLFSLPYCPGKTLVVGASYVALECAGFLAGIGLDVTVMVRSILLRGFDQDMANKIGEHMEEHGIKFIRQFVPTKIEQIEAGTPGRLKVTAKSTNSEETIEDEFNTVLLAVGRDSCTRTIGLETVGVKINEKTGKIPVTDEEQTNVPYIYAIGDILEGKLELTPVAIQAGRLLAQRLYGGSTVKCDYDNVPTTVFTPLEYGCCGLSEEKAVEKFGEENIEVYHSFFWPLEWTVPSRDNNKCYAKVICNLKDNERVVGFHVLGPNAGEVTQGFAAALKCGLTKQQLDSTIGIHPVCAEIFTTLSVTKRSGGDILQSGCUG
The experiment in a line: Inhibition of mammalian TrxR (microplate reader-based DTNB assay). It is filed as biochemical. The settings on record: cell-free assay. On the procedure: To determine the inhibition of mammalian TrxR, an established microplate reader-based assay was performed. For this purpose, commercially available recombinant rat TrxR (from Cayman Chemical) was used and diluted with distilled water to achieve a concentration of 0.12 U mL^–1. The compounds were freshly dissolved as stock solutions in DMSO. Aliquots (25 μL) of the enzyme solution and 25 μL of potassium phosphate buffer (pH 7.0) containing the compounds in graded concentrations (1% DMSO) were mixed. Positive controls were composed of 25 μL aliquots of the enzyme solution mixed with 25 μL 1% DMSO in buffer solution (no compounds). The final concentration of DMSO was 0.5% v/v in all samples. The blank solution was the highest used concentration of the compound in 0.5% DMSO in buffer solution (no enzyme). All resulting solutions were incubated with moderate shaking for 75 min at 37 °C in a 96-well plate. […] After proper mixing, the formation of 2-nitro-5-thiobenzoate (5-TNB) was monitored with a microplate reader at 405 nm 10 times in 35 s intervals for about 6 min. The increase in 5-TNB concentration over time followed a linear trend, and the enzymatic activities were calculated as the slopes (increase in absorbance per second) thereof. […] For the absorption measurements in the enzyme assay, a PerkinElmer 2030 Multilabel Reader VICTORTMX4 was used.

The test system of data set [9] is SK-OV-3/CBP. The experiment in a line: MTT viability assay in carboplatin-resistant SK-OV-3/CBP cells. It counts as cell-based, human. The settings on record: 72 h; resistant subline vs parental line. How it is done:
as §2

The test system of data set [10] is MES-OV cells. The experiment in a line: Mitochondrial membrane potential by JC-1 stain (flow cytometry). It counts as cell-based, human. The settings on record: 24 h, 10 μM. How it is done: as §1
The subject of data set [11] is MES-OV/CBP. Put plainly: MTT viability assay in carboplatin-resistant MES-OV/CBP cells. It counts as cell-based, human. The settings on record: 72 h; resistant subline vs parental line. How it is done: as §2

For the compound `O=S(=O)([O-])C(F)(F)F.[Ag+].c1ccc(-c2ccccn2)nc1.c1ccc(P(c2ccccc2)c2ccccc2)cc1` [Compound 1, [Ag(2,2′-bipy)(PPh3)][CF3SO3]], the “stability in PBS” value in data set [1] was “an equilibrium is established between the parent complex and AgP2 and AgN2 species”. Also, in [2], the “vacuole diameter (TEM)” value is on record as 300–500 nm. For the same compound, the “ROS levels (in words)” value in data set [3] is “significant and very strong elevation in ROS was found only in the 10 μM sample”. Besides, the “apoptosis induction (AV/PI)” value in data set [4] is “up to 100%”. In data set [5], the “relative resistance (IC50 HCT116 WT/OxR divided by IC50 HCT116 WT)” value was 0.7^n.s. Also, the “cytoplasmic vacuole formation (phase contrast)” value in [6] was “distinctly fewer vesicles of smaller and distinctive shapes”. In [7], the “cell cycle distribution change” value is on record as “significant shift from the G0–G1 phase to the S phase”. Further, in data set [8], the “TrxR inhibition strength relative to 7” value is 10 fold. In addition, the “relative resistance (IC50 SK-OV-3/CBP divided by IC50 SK-OV-3)” value in [9] is given as 1.6^n.s. Moreover, the “cells with mitochondrial depolarization (low Δψ fraction)” value in data set [10] is listed as 50%. The “relative resistance (IC50 MES-OV/CBP divided by IC50 MES-OV)” value in [11] is listed as 1.0^n.s.
